This is an account of results in patent publication US20090156582A1, “Pyrazole Compound” (priority 2005, published 2009).

Each structure is given as a SMILES string. A value given as a limit tells only on which side of the number the result lay.

For this assay, the target named is T1, recombinant GSK3β enzyme (human GSK3β) (Homo sapiens, UniProt P49841).
T1 construct: FLAG (N); made in house; host or cells: Sf-21 insect cells, recombinant baculovirus (pFASTBAC1 / BAC-TO-BAC)
T1 sequence (P49841 whole entry): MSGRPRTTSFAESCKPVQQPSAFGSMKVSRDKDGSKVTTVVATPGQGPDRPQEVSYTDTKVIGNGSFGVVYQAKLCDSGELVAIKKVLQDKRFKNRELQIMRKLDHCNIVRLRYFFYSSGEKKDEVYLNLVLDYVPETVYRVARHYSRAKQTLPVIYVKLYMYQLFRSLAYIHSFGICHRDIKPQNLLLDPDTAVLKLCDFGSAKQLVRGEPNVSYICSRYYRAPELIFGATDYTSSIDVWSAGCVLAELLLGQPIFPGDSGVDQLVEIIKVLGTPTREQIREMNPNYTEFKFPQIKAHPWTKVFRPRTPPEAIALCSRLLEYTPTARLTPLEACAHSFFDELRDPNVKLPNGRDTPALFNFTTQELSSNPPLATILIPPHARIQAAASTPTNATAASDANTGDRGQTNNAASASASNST
Description: Measurement of GSK3β inhibitory activity. The note with it: glycogen synthase peptide substrate, Kinase Glo luminescence, read-out: IC50 (concentration of test compound needed for 50% inhibition of luminescent intensity), GSK3β inhibitory activity. The class given is biochemical. The gist of the method:
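FLAG-purified human GSK3β expressed in baculovirus-infected Sf-21 cells; reaction with 2.5 μM ATP (stock solution) at room temperature, 30 min. Residual ATP measured by Kinase-Glo luminescence; IC50 as concentration inhibiting 50% of luminescent intensity.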
For the compound `CC(=O)Nc1cccc(C(=O)Nc2c[nH]nc2C(=O)NCCS(=O)(=O)c2ccccn2)c1` [Example 384, 4-((3-(acetylamino)benzoyl)amino)-N-(2-(pyridin-2-ylsulfonyl)ethyl)-1H-pyrazole-3-carboxamide], the IC50 is < 100 nM.
With `CC(=O)Nc1cccc(C(=O)Nc2c[nH]nc2C(=O)NCCCOC(C)C)c1` [Example 385, 4-((3-(acetylamino)benzoyl)amino)-N-(3-isopropoxypropyl)-1H-pyrazole-3-carboxamide] the figure was < 100 nM; with `Cc1cccc(C(=O)Nc2c[nH]nc2C(=O)NCC(F)(F)F)n1` [Example 389, 6-methyl-N-(3-(((2,2,2-trifluoroethyl)amino)carbonyl)-1H-pyrazol-4-yl)pyridine-2-carboxamide], < 100 nM.
In the case of `O=C(Nc1c[nH]nc1C(=O)NCCCOc1ccccc1)c1ccccn1` [Example 391, N-(3-(((3-phenoxypropyl)amino)carbonyl)-1H-pyrazol-4-yl)pyridine-2-carboxamide], the IC50 was < 100 nM.
As for `O=C(Nc1c[nH]nc1C(=O)NCCC(F)(F)F)c1ccccn1` [Example 393, N-(3-(((3,3,3-trifluoropropyl)amino)carbonyl)-1H-pyrazol-4-yl)pyridine-2-carboxamide], the IC50 was < 100 nM.
As for `N#CCNC(=O)c1n[nH]cc1NC(=O)c1ccccn1` [Example 395, N-(3-(((cyanomethyl)amino)carbonyl)-1H-pyrazol-4-yl)pyridine-2-carboxamide], the IC50 was < 100 nM.
Turning to `O=C(Nc1c[nH]nc1C(=O)NCCNc1ccccn1)c1ccccn1` [Example 397, N-(3-(((2-(pyridin-2-ylamino)ethyl)amino)carbonyl)-1H-pyrazol-4-yl)pyridine-2-carboxamide], the IC50 is < 100 nM.
On to `O=C(Nc1c[nH]nc1C(=O)NCCNc1ccccc1)c1ccccn1` [Example 399, N-(3-(((2-anilinoethyl)amino)carbonyl)-1H-pyrazol-4-yl)pyridine-2-carboxamide], for which the IC50 is < 100 nM.
On to `O=C(Nc1c[nH]nc1C(=O)NCCO)c1ccccn1` [Example 401, N-(3-(((2-hydroxyethyl)amino)carbonyl)-1H-pyrazol-4-yl)pyridine-2-carboxamide], for which the IC50 was < 100 nM.
For `N#CCCNC(=O)c1n[nH]cc1NC(=O)C1CCCC1` [Example 411, N-(2-cyanoethyl)-4-((cyclopentylcarbonyl)amino)-1H-pyrazole-3-carboxamide] the value was < 100 nM; for `COc1cccc(C(=O)Nc2c[nH]nc2C(=O)NCCC#N)c1` [Example 414, N-(2-cyanoethyl)-4-(3-methoxybenzoylamino)-1H-pyrazole-3-carboxamide], < 100 nM.
Regarding `CC(C)(C)C(=O)Nc1c[nH]nc1C(=O)NCCC#N` [Example 415, N-(2-cyanoethyl)-4-(2,2-dimethylpropanoylamino)-1H-pyrazole-3-carboxamide], the IC50 is < 100 nM.
Consider `N#CCCNC(=O)c1n[nH]cc1NC(=O)c1cccc(C#N)c1` [Example 417, N-(2-cyanoethyl)-4-(3-cyanobenzoylamino)-1H-pyrazole-3-carboxamide], for which the IC50 is < 100 nM.
For `Cc1ccc(C(=O)Nc2c[nH]nc2C(=O)NCCC#N)cc1` [Example 418, N-(2-cyanoethyl)-4-(4-methylbenzoylamino)-1H-pyrazole-3-carboxamide] the value was < 100 nM.
Regarding `O=C(Nc1c[nH]nc1C(=O)NCC(F)(F)F)c1ccccc1` [Example 422, 4-(benzoylamino)-N-(2,2,2-trifluoroethyl)-1H-pyrazole-3-carboxamide], the IC50 is < 100 nM.
For `CC(C)OCCNC(=O)c1n[nH]cc1NC(=O)c1ccccc1` [Example 424, 4-(benzoylamino)-N-(2-isopropoxyethyl)-1H-pyrazole-3-carboxamide] the value was < 100 nM; for `Cc1cccc(C(=O)Nc2c[nH]nc2C(=O)NCCOc2ccc(F)cc2)n1` [Example 428], < 100 nM.
For the compound `CC(C)NC(=O)c1n[nH]cc1NC(=O)COc1ccccc1` [compound 001, N-isopropyl-4-((phenoxyacetyl)amino)-1H-pyrazole-3-carboxamide], the IC50 was found to be 267 nM.
In the case of `CNC(=O)c1n[nH]cc1NC(=O)C(c1ccccc1)c1ccccc1` [compound 003], the IC50 was < 100 nM.
With `CNC(=O)c1n[nH]cc1NC(=O)COc1ccccc1` [compound 004] the figure was < 100 nM.
For `CNC(=O)c1n[nH]cc1NC(=O)C1CCCCC1` [compound 005] the value was 307 nM; for `CC(=O)Nc1c[nH]nc1C(=O)NC(C)C` [compound 017], < 100 nM; for `CC(C)NC(=O)c1n[nH]cc1NC(=O)C(c1ccccc1)c1ccccc1` [compound 019], < 100 nM.
For `CC(C)NC(=O)c1n[nH]cc1NC(=O)C1CCCCC1` [compound 020] the value was < 100 nM; for `CCOCC(=O)Nc1c[nH]nc1C(=O)NC(C)C` [compound 021], < 100 nM.
For `CC(C)NC(=O)c1n[nH]cc1NC(=O)Cc1ccc(-c2ccccc2)cc1` [compound 022], the IC50 turned out to be 233 nM.
On to `CC(C)NC(=O)c1n[nH]cc1NC(=O)/C=C/c1ccccc1` [compound 023], for which the IC50 was < 100 nM.
Regarding `CC(C)NC(=O)c1n[nH]cc1NC(=O)CCc1ccccc1` [compound 024], the IC50 is < 100 nM.
Consider `COc1ccccc1CC(=O)Nc1c[nH]nc1C(=O)NC(C)C` [compound 025], for which the IC50 was 245 nM.
On to `CC(C)NC(=O)c1n[nH]cc1NC(=O)Cc1c[nH]c2ccccc12` [compound 026], for which the IC50 came to 169 nM.
For `CC(C)NC(=O)c1n[nH]cc1NC(=O)c1ccccc1` [compound 027], the IC50 was < 100 nM.
Take `CC(C)NC(=O)c1n[nH]cc1NC(=O)c1ccc(-c2ccccc2)cc1` [compound 028]: the IC50 was < 100 nM.
Turning to `COc1ccc(C(=O)Nc2c[nH]nc2C(=O)NC(C)C)cc1` [compound 030], the IC50 is < 100 nM.
For `CC(C)NC(=O)c1n[nH]cc1NC(=O)c1ccc(F)cc1F` [compound 031] the value was < 100 nM; for `CC(C)NC(=O)c1n[nH]cc1NC(=O)c1ccc(Oc2ccccc2)cc1` [compound 032], < 100 nM.
In the case of `CCCN(CCC)S(=O)(=O)c1ccc(C(=O)Nc2c[nH]nc2C(=O)NC(C)C)cc1` [compound 033], the IC50 was 171 nM.
With `CC(=O)Nc1cccc(C(=O)Nc2c[nH]nc2C(=O)NC(C)C)c1` [compound 034], the IC50 is < 100 nM.
Regarding `CC(C)NC(=O)c1n[nH]cc1NC(=O)c1ccc(OC(F)(F)F)cc1` [compound 035], the IC50 was < 100 nM.
Consider `CC(C)NC(=O)c1n[nH]cc1NC(=O)c1ccc2[nH]ccc2c1` [compound 036], for which the IC50 was < 100 nM.
Regarding `CC(C)NC(=O)c1n[nH]cc1NC(=O)c1cnccn1` [compound 037], the IC50 is < 100 nM.
For the compound `O=C(/C=C/c1ccccc1)Nc1c[nH]nc1C(=O)N1CCCC1` [compound 045], the IC50 was found to be 269 nM.
For `CC(=O)Nc1c[nH]nc1C(=O)NC1CCCC1` [compound 059] the value was < 100 nM.
For `O=C(COc1ccccc1)Nc1c[nH]nc1C(=O)NC1CCCC1` [compound 062], the IC50 is < 100 nM.
For the compound `O=C(NC1CCCC1)c1n[nH]cc1NC(=O)C1CCCCC1` [compound 063], the IC50 is < 100 nM.
Turning to `CCOCC(=O)Nc1c[nH]nc1C(=O)NC1CCCC1` [compound 064], the IC50 is < 100 nM.
For `O=C(Cc1ccc(-c2ccccc2)cc1)Nc1c[nH]nc1C(=O)NC1CCCC1` [compound 065] the value was 234 nM; for `O=C(CCc1ccccc1)Nc1c[nH]nc1C(=O)NC1CCCC1` [compound 067], < 100 nM.
Take `COc1ccccc1CC(=O)Nc1c[nH]nc1C(=O)NC1CCCC1` [compound 068]: the IC50 was < 100 nM.
For `O=C(Cc1c[nH]c2ccccc12)Nc1c[nH]nc1C(=O)NC1CCCC1` [compound 069], the IC50 is < 100 nM.
Consider `O=C(Nc1c[nH]nc1C(=O)NC1CCCC1)c1ccccc1` [compound 070], for which the IC50 is < 100 nM.
`O=C(Nc1c[nH]nc1C(=O)NC1CCCC1)c1ccc(C(F)(F)F)cc1` [compound 071]: the IC50 was < 100 nM.
Regarding `COc1ccc(C(=O)Nc2c[nH]nc2C(=O)NC2CCCC2)cc1` [compound 072], the IC50 is < 100 nM.
As to `O=C(Nc1c[nH]nc1C(=O)NC1CCCC1)c1ccc(F)cc1F` [compound 073], the IC50 is < 100 nM.
Take `CCCN(CCC)S(=O)(=O)c1ccc(C(=O)Nc2c[nH]nc2C(=O)NC2CCCC2)cc1` [compound 074]: the IC50 worked out at 299 nM.
Regarding `CC(=O)Nc1cccc(C(=O)Nc2c[nH]nc2C(=O)NC2CCCC2)c1` [compound 075], the IC50 was < 100 nM.
In the case of `O=C(Nc1c[nH]nc1C(=O)NC1CCCC1)c1ccc(OC(F)(F)F)cc1` [compound 076], the IC50 was < 100 nM.
With `O=C(Nc1c[nH]nc1C(=O)NC1CCCC1)c1ccc2[nH]ccc2c1` [compound 077] the figure was < 100 nM.
With `O=C(NC1CCCC1)c1n[nH]cc1NC(=O)c1c[nH]c2ccccc12` [compound 078] the figure was < 100 nM.
With `O=C(Nc1c[nH]nc1C(=O)NC1CCCC1)c1cnccn1` [compound 079] the figure was < 100 nM.
With `O=C(CC1CCCC1)Nc1c[nH]nc1C(=O)Nc1ccccc1` [compound 081], the IC50 turned out to be 106 nM.
Consider `O=C(COc1ccccc1)Nc1c[nH]nc1C(=O)Nc1ccccc1` [compound 083], for which the IC50 was < 100 nM.
On to `O=C(Nc1ccccc1)c1n[nH]cc1NC(=O)C1CCCCC1` [compound 084], for which the IC50 was < 100 nM.
As to `CCOCC(=O)Nc1c[nH]nc1C(=O)Nc1ccccc1` [compound 085], the IC50 was < 100 nM.
`O=C(CCc1ccccc1)Nc1c[nH]nc1C(=O)Nc1ccccc1` [compound 087]: the IC50 turned out to be 115 nM.
For `O=C(Cc1c[nH]c2ccccc12)Nc1c[nH]nc1C(=O)Nc1ccccc1` [compound 089], the IC50 was 379 nM.
